Results on 13 molecules are retold here after PubChem BioAssay (NCI).

Holding throughout (assay): DTP human tumour cell line panel, 48 h
For assay [1], the system named is HCT-15 colon.
Assay [2] has as its system UACC-257 melanoma.
Assay [3] deals with SN12C renal.
Assay [4] has as its system SW-620 colon.
Assay [5] has as its system T-47D breast.
The test system of assay [6] is SNB-19 CNS.
Assay [7] concerns HCT-116 colon.
For assay [8], the system named is SF-268 CNS.
In assay [9] the test system is TK-10 renal.
Assay [10] deals with OVCAR-8 ovarian.

Where “and” joins values, the source holds several entries; their conditions need not be identical. Identical values can stand only once.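 Growth conditions: 96-well plates. Treatment: test compound, 48 hours, 5 concentrations. Analysis: linear interpolation between bracketing concentrations; unreached endpoints set to highest concentration. Abbreviation: GI50, concentration required for 50% inhibition of growth. TGI denotes the concentration required for complete inhibition of growth.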

Broadly, the GI50 is the concentration at which growth is held to half of that of the control. As usually defined, the TGI is the concentration giving total growth inhibition. A low value points to greater sensitivity of the cells. Consider `CC(=O)C1(O)Cc2c(O)c3c(c(O)c2C(OC2CC(N)C(O)C(C)O2)C1)C(=O)c1ccccc1C3=O` (stereo not given), for which the GI50 in [1] was 0.0156 µM; in [2] it was 0.0377 µM; in assay [3], below 0.0117 µM; in assay [4] it was below 0.0114 µM; in assay [5] it was below 0.0145 µM; in assay [6] it was below 0.0122 µM. In addition, the results for the GI50 in [8] and in [10] were 0.0259 µM and 0.0147 µM, respectively. The TGI in assay [1] is 0.52 µM and 0.348 µM; in assay [2], 0.451 µM and 0.324 µM; in [3], 0.115 µM and 0.163 µM; in [4] it was 0.597 µM and 0.262 µM; in assay [5], 0.631 µM and 0.219 µM; in [6], 0.97 µM and 0.156 µM. For the same molecule, the TGI was 0.62 µM and 0.174 µM in assay [7]; 0.343 µM and 0.233 µM in [8]; 0.158 µM in assay [9]; 0.597 µM and 0.817 µM in assay [10].

Turning to `COc1ccccc1N=C1SCCN1C(=S)Nc1ccc(S(=O)(=O)/N=C/N(C)C)cc1`, the total growth inhibition concentration (TGI) in assay [1], in assay [2], in [3], in assay [4], in [5] and in assay [6] was above 100 µM in each case. For the same molecule, the TGI in assay [7] was above 100 µM; in assay [8], 55.2 µM; in [9], above 100 µM; in assay [10], above 100 µM.

Take `OC(c1ccccc1)(c1cccnc1)C(O)(c1ccccc1)c1cccnc1` (stereo not given): the concentration for total growth inhibition (TGI) in [1], in assay [2], in assay [3], in assay [4], in assay [5] and in [6] was above 100 µM in each case. Also, the TGI in assay [7], in assay [8], in [9] and in [10] was above 100 µM each time.

With `C=CCN1CCC2(CC1)NC(=O)c1ccccc1O2`, the TGI in assay [1], in assay [2], in [3], in assay [4], in assay [5] and in [6] was above 100 µM in each case. Besides, the TGI in assay [7], in [8], in assay [9] and in assay [10] was above 100 µM throughout.

On to `Cc1cc(C)c(N=Nc2c(O)c(S(=O)(=O)O)cc3cc(S(=O)(=O)O)ccc23)cc1C`, for which the total growth inhibition concentration (TGI) in assay [1], in assay [2], in [3], in [4], in assay [5] and in [6] was above 100 µM in each case. Moreover, the TGI in [7], in assay [8], in assay [9] and in assay [10] was above 100 µM in each case.

With `C=CC(Br)(CBr)CCC(Br)C(C)C` (stereo not given), the total growth inhibition concentration (TGI) in assay [1] came to 17.9 µM; in assay [2], 24 µM; in [3], 27.2 µM; in assay [4], 5.38 µM; in [5], 0.971 µM; in [6] it was 23.4 µM. Further, the TGI in assay [7] was determined as 14.3 µM; in [8], 25.7 µM; in assay [9] it was 10.4 µM; in [10] it was 8.58 µM.

As for `CCN(CC)CCC(=O)c1ccc(Oc2ccc(F)cc2)cc1`, the TGI in assay [1] amounted to 36.7 µM; in assay [2], 34 µM; in assay [3], 32.1 µM; in assay [4], 32.7 µM; in assay [5] it was 42 µM; in assay [6], 33.6 µM. Further, the TGI in [7] was found to be 30.3 µM; in assay [8] it was 35.5 µM; in assay [9] it was 31.7 µM; in assay [10], 57.6 µM.

Turning to `OCC(O)C(O)C(O)C(O)/C=N/Nc1nc(O)c(/C=C2\C=Nc3ccccc32)[nH]1` (stereo not given), the TGI in [1], in assay [2], in assay [3], in assay [4], in assay [5] and in assay [6] was above 100 µM in each case. In addition, the TGI in assay [7], in assay [8], in assay [9] and in assay [10] was above 100 µM in each case.

`COC(=O)[C@H](CCSC)NC(=O)c1ccc(CNC(=O)/C(C)=C/c2ccccc2)cc1`: the TGI is above 100 µM in assay [1]; 52.7 µM in assay [2]; above 100 µM in assay [3]; above 100 µM in [4]; above 100 µM in assay [5]; 58.2 µM in [6]. For the same molecule, the TGI in [7] was above 100 µM; in assay [8], 70.1 µM; in assay [9], above 100 µM; in assay [10] it was 51.4 µM.

For the molecule `O=C(O)CC(O)(C(=O)O)C(O)C(=O)O` (stereo not given), the total growth inhibition concentration (TGI) in assay [1], in [2], in assay [3], in assay [4], in [5] and in assay [6] was above 1000 µM throughout. For the same molecule, the TGI in assay [7], in assay [8], in assay [9] and in [10] was above 1000 µM in each case.

As to `CC1CC[C@@]2(OC1)OC1C[C@H]3[C@@H]4CCC5CC(O)CC[C@]5(C)[C@H]4C/C(=N\N(C)C)[C@]3(C)C1[C@@H]2C` (stereo not given in full), the TGI is 60.3 µM in assay [1]; above 100 µM in assay [2]; 64.7 µM in assay [3]; above 100 µM in assay [4]; above 100 µM in [5]; 88.4 µM in assay [6]. Besides, the TGI was determined as 60.3 µM in assay [7], 99.4 µM in assay [8] and 86.9 µM in assay [9].

Consider `N=C(c1cccs1)C1(N2CCCCC2)CCCCC1`, for which the total growth inhibition concentration (TGI) is 29.7 µM in [1]; 31.8 µM in [2]; 88.6 µM in assay [3]; 34.7 µM in assay [4]; 27.1 µM in [5]; 34.8 µM in assay [6]. The TGI was above 100 µM in [7], 50.8 µM in assay [8] and 35.7 µM in assay [9].

Turning to `CC1(C)CC[C@]2(C(=O)O)[C@H](O)C[C@]3(C)C(=CC[C@@H]4[C@@]5(C)CC[C@H](OC6OC(C(=O)O)C(O)C(O)C6O)C(C)(C)[C@@H]5CC[C@]43C)[C@@H]2C1` (stereo not given in full), the TGI in assay [1] is above 100 µM; in [2], above 100 µM; in assay [3], 94.9 µM; in assay [4], above 100 µM; in assay [5], above 100 µM; in assay [6], above 100 µM. Moreover, the concentration for total growth inhibition (TGI) in assay [7], in [8] and in assay [10] was above 100 µM in each case.
